Test results published in patent publication US9668960B2, “Methods useful in studying or modulating skin or hair pigmentation, plant extracts for use in compositions and cosmetic care method” (L V M H RECHERCHE, priority 2008, dated 2017).

What was measured:
Myo-X = Myo-X protein expression by Western blotting in normal human melanocytes; assay type: cell-based; settings: EM (F39), 12 h
Method: Western blot analysis: EMc in a confluent T225 flask were trypsinised and seeded into T25 flask with full medium and allowed to attach overnight. 24 h before treatment the medium was replaced with starved medium for 24 h. Cells were washed 3-times with sterile PBS, and incubated in starved medium alone, or L-18 (0.001%), L-19 (1%), L-20 (0.5%), L-21 (10 μg/ml), L-22 (1%) and L-23 (0.05 μg/ml) for 12 and 72 h. Controls included IBMX (100 μM) and niacinamide (10 μM).
40 μg of total protein from each cell extract was electrophoresed in reducing SDS-8%-PAGE and blotted on PVDF membranes (Millipore Corporation, Bedford, Mass.). […]
After extensive washes the blots were incubated with horseradish peroxidise conjugated secondary antibodies for 2 h. […] The chemiluminescent signal was detected by exposing the blot strips to Kodak XRA X-ray film (Kodak, UK) at various exposure times, followed by development in developing solution (Kodak, UK) until bands appeared, rinsed in tap water, fixed in the fixer (Kodak, UK) until the film turned blue, then rinsed with tap water and allowed to dry. […]
(A) Cell extracts were analyzed by Western blotting using anti-Myo-X and anti-β-actin as a loading control.
(B) Densitometric analysis of Myo-X and actin band intensities expressed as percentage change compared to unstimulated controls. […]

[1] = tested on: melanosome transfer from melanocytes to matched keratinocytes; experiment: Quantitative analysis of gp100-positive melanosome transfer in melanocyte-keratinocyte co-culture; assay type: cell-based, human; settings: for gp 100+ Spots/KC / % Change of Melanin Transfer vs. Basal: 24 h; for gp 100+ Spots/KC: co-culture F39, L-18 0.001%, L-19 1%, L-20 0.5%, L-21 10 μg/ml, L-22 1%, L-23 0.05 μg/ml, basal 27.3; for % Change of Melanin Transfer vs. Basal: same doses as E10
Method: Quantitative analysis of melanosome transfer: Fully-matched epidermal melanocytes (p4) and epidermal keratinocytes (p2) from 4 normal individuals (i.e., F39; F67; F54; F52) were maintained in 8-well Lab-Tek® chamber slides at a total cell density of 2×10^4 cells/well and in a ratio of 1 melanocyte to 10 normal keratinocytes. The co-culture was maintained for further 24 h before washing 3-times with sterile PBS before incubation with starved medium alone, or L-18 (0.001%), L-19 (1%), L-20 (0.5%), L-21 (10 μg/ml), L-22 (1%) and L-23 (0.05 μg/ml) for 12 and 72 h. Controls included IBMX (100 μM) and niacinamide (10 μM). Cells were then processed for immunofluorescence staining with gp100 to assess melanosome transfer to keratinocytes.
Evaluation of melanosome transfer was performed by counting fluorescent gp100-positive spots within recipient keratinocytes in 5 random microscopic fields per well at 100× magnification (oil-immersion) in 3 independent experiments. To avoid counting melanin granules that may still be associated with melanocytes, we only counted gp100-positive spots within keratinocytes that were not in direct contact with melanocytes.
Gp100 immunostaining provides a powerful tracking method for the global assessment of melanin transfer to keratinocytes, and for the evaluation of melanocyte phenotype modulators (Singh et al., 2008). […] In this assay melanosome transfer from melanocytes to matched keratinocytes under basal (i.e., unstimulated) conditions was determined at an average of 27.3 gp100-positive spots per keratinocyte. However, this was increased almost 4-fold after 24 h stimulation of co-cultures with IBMX to 99.5 gp100-positive spots per keratinocyte. Conversely, niacinamide reduced melanosome transfer by 28% (19.6 gp100-positive spots per keratinocyte; p<0.01; a result that correlates with its clinical use as a lightener of cutaneous pigmentation (Hakozaki et al, 2002; Greatens et al., 2005).
Means are ±SEM of 4 independent experiments with **P<0.01, ***P<0.001.

tyrosinase = experiment: DOPA oxidase detection for tyrosinase activity in FM55 melanoma; assay type: cell-based, human; settings: 72 h; for Changes in tyrosinase activity, FM55 % change: same doses as E5, vs basal
Method: The cells were prepared for SDS-PAGE and transblotted onto PVDF membranes. 70 μg of un-reduced protein extract without boiling was pipetted into the appropriate wells of 8% SDS-PAGE gels. […] The L-DOPA reaction was stopped by washing the membrane in distilled water and the membrane was scanned. […] In addition IBMX and NH4Cl (positive melanocytic modulators) and niacinamide (negative modulator) were used as controls. […] Controls: Melanocytic modulators: IBMX (100 μM), NH4Cl (100 μM), and niacinamide (10 μM.). (A) Protein extracts were electroblotted and membranes stained with L-DOPA for the estimation of tyrosinase activity. (B) Densitometric scanning of band intensities and values were expressed as the fold increase compared to unstimulated control levels. Means are ±SEM of 3 independent experiments with *P<0.05, **P<0.01, ***P<0.001.

Row | Structure (SMILES) | Myo-X expression reduced by (Myo-X; niacinamide 10 μM) [%] | gp 100+ Spots/KC ([1]; IBMX 100 μM, niacinamide 10 μM) [Spots/KC] | % Change of Melanin Transfer vs. Basal [1] | melanosome transfer reduced by ([1]; niacinamide 10 μM, p<0.01) [%] | Changes in tyrosinase activity, FM55 % change (tyrosinase) | increase in Myo-10 expression, fold versus untreated controls (Myo-X; IBMX 100 μM) [fold] | melanosome transfer increased, fold versus basal ([1]; 24 h stimulation of co-cultures, IBMX 100 μM) [fold] | effect on tyrosinase (dopa oxidase) activity compared with basal levels (tyrosinase; FM55 melanoma cells, doses as E5)
1 | NC(=O)c1cccnc1 [niacinamide] | 60 | 19.6 | −28% | 28 | −3.31% | – | – | –
2 | CC(C)Cn1c(=O)n(C)c(=O)c2[nH]cnc21 [IBMX] | – | 99.5 | +264% | – | +141.72% | 3 | ~4 | dramatic increase in dopa oxidase activity of tyrosinase
